Results taken from patent US20240083857A1, “2-Methyl-Quinazolines” (Bayer Pharma Aktiengesellschaft, priority 2017, published 2024).

Experiments:
[1] = target: Epidermal Growth Factor Receptor (EGFR) (Homo sapiens (Human), UniProt P00533); assay: EGFR kinase assay (TR-FRET); type: biochemical; conditions: values given in μM; read-out: EGFR kinase inhibition IC50
Method in brief: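 Read-out is the 665/620 nm HTRF ratio, from a Tb-cryptate anti-phosphotyrosine antibody and streptavidin-XL665 bound to phosphorylated biotin-peptide substrate. The enzyme, A431-derived EGFR (~3 U/ml), was given 15 min compound pre-binding at 22° C in Hepes pH 7.0 with Mg2+/Mn2+ before reaction.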

[2] = target: human SOS1 (nucleotide exchange of K-Ras^G12C) (Homo sapiens, UniProt Q07889); assay: Biochemical assay 2: K-Ras^G12C activation assay by hSOS1 at high GTP concentration (HTRF); conditions: high GTP; read-out: Assay 2 (KRAS-Activation by SOS high GTP) activity expressed as IC50

Epidermal Growth Factor Receptor (EGFR), sequence (P00533 25-1210): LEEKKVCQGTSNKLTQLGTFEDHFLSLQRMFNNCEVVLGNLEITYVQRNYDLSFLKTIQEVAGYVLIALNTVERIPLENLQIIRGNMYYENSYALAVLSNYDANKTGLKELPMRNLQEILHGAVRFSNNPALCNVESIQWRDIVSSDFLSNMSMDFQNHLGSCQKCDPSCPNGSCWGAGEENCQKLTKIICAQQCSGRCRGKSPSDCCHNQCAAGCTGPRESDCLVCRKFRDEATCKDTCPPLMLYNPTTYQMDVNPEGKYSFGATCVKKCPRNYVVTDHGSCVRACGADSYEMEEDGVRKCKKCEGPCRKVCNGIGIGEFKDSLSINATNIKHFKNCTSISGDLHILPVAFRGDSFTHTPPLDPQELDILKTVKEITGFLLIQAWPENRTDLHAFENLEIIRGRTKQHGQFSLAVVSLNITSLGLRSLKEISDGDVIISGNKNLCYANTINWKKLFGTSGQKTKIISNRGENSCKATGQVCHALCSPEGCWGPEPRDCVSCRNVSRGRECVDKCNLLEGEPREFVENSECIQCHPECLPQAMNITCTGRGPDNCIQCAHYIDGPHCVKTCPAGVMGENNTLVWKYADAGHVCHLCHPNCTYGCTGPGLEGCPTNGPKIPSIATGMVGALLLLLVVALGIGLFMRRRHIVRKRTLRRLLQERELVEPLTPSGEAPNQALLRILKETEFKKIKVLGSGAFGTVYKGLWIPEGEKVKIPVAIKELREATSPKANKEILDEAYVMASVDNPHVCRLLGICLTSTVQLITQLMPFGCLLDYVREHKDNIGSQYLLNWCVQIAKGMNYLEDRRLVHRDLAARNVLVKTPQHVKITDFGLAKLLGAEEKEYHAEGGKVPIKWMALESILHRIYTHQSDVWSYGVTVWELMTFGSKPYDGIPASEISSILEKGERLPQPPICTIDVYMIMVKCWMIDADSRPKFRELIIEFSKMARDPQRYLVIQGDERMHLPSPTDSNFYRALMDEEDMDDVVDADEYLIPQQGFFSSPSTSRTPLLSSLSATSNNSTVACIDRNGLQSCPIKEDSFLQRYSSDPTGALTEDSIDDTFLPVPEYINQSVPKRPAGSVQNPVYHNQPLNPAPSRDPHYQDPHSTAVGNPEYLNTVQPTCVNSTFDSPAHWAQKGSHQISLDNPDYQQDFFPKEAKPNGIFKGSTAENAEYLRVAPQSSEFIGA

COc1cc2nc(C)nc(N[C@H](C)c3cccc(-c4c(C)noc4C)c3)c2cc1OC [Example 336, N-{(1R)-1-[3-(3,5-dimethyl-1,2-oxazol-4-yl)phenyl]ethyl}-6,7-dimethoxy-2-methyl-quinazolin-4-amine]
IC50 [1]: > 20 µM
IC50 [2]: 1260 nM

COc1cc2nc(C)nc(N[C@H](C)c3cccc(-c4ccn[nH]4)c3)c2cc1OC [Example 337, 6,7-dimethoxy-2-methyl-N-{(1R)-1-[3-(1H-pyrazol-5-yl)phenyl]ethyl}quinazolin-4-amine]
IC50 [1]: > 20 µM
IC50 [2]: 806 nM

COc1cc2nc(C)nc(N[C@H](C)c3cccc(-c4cnn(C)c4)c3)c2cc1OC [Example 338, 6,7-dimethoxy-2-methyl-N-{(1R)-1-[3-(1-methyl-1H-pyrazol-4-yl)phenyl]ethyl}quinazolin-4-amine]
IC50 [1]: > 20 µM
IC50 [2]: 838 nM

COc1cc2nc(C)nc(N[C@H](C)c3cccc(-c4ccnn4C)c3)c2cc1OC [Example 339, 6,7-dimethoxy-2-methyl-N-{(1R)-1-[3-(1-methyl-1H-pyrazol-5-yl)phenyl]ethyl}quinazolin-4-amine]
IC50 [1]: > 20 µM
IC50 [2]: 1380 nM

COc1cc2nc(C)nc(N[C@H](C)c3cccc(-n4ccnc4)c3)c2cc1OC [Example 340, N-{(1R)-1-[3-(1H-imidazol-1-yl)phenyl]ethyl}-6,7-dimethoxy-2-methylquinazolin-4-amine]
IC50 [1]: > 20 µM
IC50 [2]: 909 nM
